Data from publication PMC6373673, “Purified PEGylated human glucagon-like peptide-2 reduces the severity of irradiation-induced acute radiation enteritis in rats” (Journal of Radiation Research, 2018).

Columns and labels:
[1] = tested on: irradiation-induced acute radiation enteritis in rats; test: Clinical, gross, histological and morphometric changes of the small intestine in irradiation-induced acute radiation enteritis; assay type: in vivo, Sprague Dawley (SD) rats; set-up: key to Shortening of villi (histologic) / Architectural disarray (histologic) / Diarrhea / Abdominal distention / Intestinal dilatation (gross) / Mucosal ulceration (gross) / Edema (gross): (–) = absent; (+) = present; Number of villi: unit not given here; details: SD rats, 8 Gy abdominal X-ray; for Abdominal distention / Architectural disarray (histologic) / Diarrhea / Edema (gross) / Intestinal dilatation (gross) / Mucosal ulceration (gross) / Shortening of villi (histologic): killed 48 h after; for Protection against radiation-induced intestinal injury (villi integrity, histology): i.p. pretreatment 5 min before irradiation, result in words
Excerpt: (§1) Sixty adult male Sprague Dawley (SD) rats weighing 220–250 g were included in our study. Rats were subjected to 1 week of preliminary conditioning, during which time they received standard pellet rat chow and water ad libitum. They were housed in a temperature-and humidity-controlled environment, two animals per cage, with a 12-h light/12-h dark cycle. The Principles of Laboratory Animal Care (NIH Publication 85e23, revised 1996) were followed. Animal study protocols were approved by the Ethics Committee of the Fourth Military Medical University. The experiment was carried out at the Department of Pharmacy, Tangdu Hospital, Fourth Military Medical University.
(§2) X-ray irradiation was performed using a linear accelerator (Siemens primask) adjusted to provide X-ray irradiation, and carried out at the Department of Radiology and Oncology at the Tangdu Hospital. All of the animals were anesthetized with an intramuscular injection of pentobarbital sodium (100 mg/kg) and subjected to a single dose of 8 Gy abdominal X-radiation. The dose was delivered at a rate of 400 monitor units/min (1100 rad, 116.5 cGy/min, 100 cm source–skin distance) using a conventional radiation source, while the other parts of the body were carefully shielded.
(§3) Rats were randomized into six groups (Groups A–F). […] The remaining rats were subjected to a single dose of 8 Gy of abdominopelvic X-radiation and randomized further into five groups (Groups B–F). […] Briefly, rats were anesthetized with 100 mg/kg pentobarbital sodium, positioned supine, and subjected to a single fraction of 8 Gy delivered at a specific depth through abdominopelvic fields using X-rays at the rate of 0.74 Gy/min, while the other parts of the body were carefully shielded. Radiated rats were allowed to recover from the anesthetic and GLP-2 or Mono-PEG-hGLP-2 was administered by intraperitoneal injection. • Group A: non-X-ray irradiated (control). • Group B: X-ray irradiated. • Group C: pretreated with 3 μg of Mono-PEG-hGLP-2 in 0.3 ml of saline 5 min before X-ray irradiation. • Group D: pretreated with 10 μg of Mono-PEG-hGLP-2 in 0.3 ml of saline 5 min before X-ray irradiation. • Group E: pretreated with 30 μg of Mono-PEG-hGLP-2 in 0.3 ml of saline 5 min before X-ray irradiation. • Group F: pretreated with 30 μg of GLP-2 in 0.3 ml of saline 5 min before X-ray irradiation.
Animals were killed 48 h after X-ray irradiation, and laparotomies were performed. Immediately after the laparotomy, the small intestine (jejunum) was examined and removed. Two-centimeter segments of the jejunum and segments of the intestine showing edema and change in color (purple) were resected. Luminal contents were washed with 0.9% NaCl by injecting saline through the lumen of the small bowel segments. Tissue samples were pinned out on a paraffin block and floated upside down in 10% buffered formalin overnight, dehydrated, and embedded in paraffin. Sections of 4 μm were cut with a Leica sliding microtome (SM 2000R, Nussbach, Germany) and slides, containing a minimum of 10 sections, were stained with hematoxylin and erosin stains. Some representative intestine sections were processed for ultrastructural studies. Sections were evaluated quantitatively and qualitatively in a blinded fashion.
For histological assessment, villous height (from the base to the tip of the villi), crypt height (from the base to the tip of each crypt), and the number of villi per square millimeter was determined based on individual intestinal segments at five separate microscopic fields for each animal. They were recorded as the mean values using ocular micrometer-adapted light microscopy at a magnification of ×100.

[2] = tested on: oxidative stress markers (MDA, SOD, GSH, GSH-Px) in the small intestine; test: Intestinal MDA, SOD, GSH and GSH-Px (commercial assay kits) after X-ray irradiation; assay type: in vivo, Sprague Dawley (SD) rats; details: SD rats, 8 Gy abdominal X-ray; for Intestinal GSH-Px activity / Intestinal SOD activity / Intestinal content of GSH / Intestinal content of MDA: small intestine 48 h after, mean ± S.D., n = 10
Excerpt: as §1, §2, §3
(§4) Malondialdehyde (MDA) levels, glutathione (GSH) content, and the activities of super oxide-dismutase (SOD) and glutathione peroxidase (GPx) were determined in the small intestine using commercial assay kits (Biyuntian Co., China) according to the manufacturer’s protocols. The protein content ratio was determined by Pierce™ BCA Protein Assay Kit (Thermo Fisher Scientific Inc., Rockford, IL, USA). All of the values were normalized to total intestinal protein. Small intestine tissue (20 mg) was homogenized in lysis buffer (150 mM NaCl, 0.1% SDS, 0.1% NP-40, 20 mM Tris-HCl pH 7.5) and protease inhibitor cocktail using a Tissue Lyser II homogenizer (Qiagen; Hilden, Germany). Total protein concentrations of tissue homogenates were detected by a Pierce™ BCA Protein Assay Kit (Thermo Scientific; Rockford, IL, USA). The levels of tumor necrosis factor-alpha (TNF-α) (Invitrogen; Carlsbad, CA, USA) and interleukin-2 (IL-2) (Bioo Scientific; Austin, TX, USA) in the tissue samples were determined using commercially available sandwich ELISA kits, according to the protocol recommended by the manufacturer. Results were recorded as the ratio of detected protein (TNF-α, IL-2) (pg/ml) to the amount of total protein (mg/ml).

TNF-α = test: Intestinal TNF-α by sandwich ELISA after X-ray irradiation; assay type: in vivo, Sprague Dawley (SD) rats; details: SD rats, 8 Gy abdominal X-ray, small intestine homogenate 48 h after, mean ± S.D., n = 10
Excerpt: as §1, §2
Rats were randomized into six groups (Groups A–F). […] The remaining rats were subjected to a single dose of 8 Gy of abdominopelvic X-radiation and randomized further into five groups (Groups B–F). […] Briefly, rats were anesthetized with 100 mg/kg pentobarbital sodium, positioned supine, and subjected to a single fraction of 8 Gy delivered at a specific depth through abdominopelvic fields using X-rays at the rate of 0.74 Gy/min, while the other parts of the body were carefully shielded. […]
as §4, with “All of the values were normalized to total intestinal protein. Small intestine tissue (20 mg) was homogenized in lysis buffer (150 mM NaCl, 0.1% SDS, 0.1% NP-40, 20 mM Tris-HCl pH 7.5) and protease inhibitor cocktail using a Tissue Lyser II homogenizer (Qiagen; Hilden, Germany).” left out

[3] = GLP-2 in vivo, introduction statement, no reference given; cited from earlier work
Excerpt: Glucagon-like peptide-2 (GLP-2) is a 33-amino acid peptide derived from the post-translational processing of proglucagon in enteroendocrine L-cells and cerebral neurons. GLP-2 exerts diverse effects related to the regulation of gastrointestinal growth and function, including stimulation of mucosal growth, inhibition of apoptosis, increased nutrient absorption, inhibition of gastric emptying and gastric acid secretion, reduction of intestinal permeability, stimulation of intestinal blood flow, and relaxation of intestinal smooth muscle. GLP-2 h ...

NF-κB = NF-κB expression in intestine (immunohistochemistry and Western blot) after X-ray irradiation; assay type: in vivo, Sprague Dawley (SD) rats; details: SD rats, 8 Gy abdominal X-ray
Excerpt: as §1, §2
Rats were randomized into six groups (Groups A–F). […]
The expression of NF-κB was analyzed by Western blotting. […]

[4] = 30 μg i.p. 5 min before irradiation, jejunum 48 h after, five microscopic fields per animal, ×100, mean ± SD
[5] = 30 μg i.p. in 0.3 ml saline 5 min before irradiation
[6] = 30 μg i.p. 5 min before irradiation
[7] = 3 μg i.p. 5 min before irradiation, jejunum 48 h after, five microscopic fields per animal, ×100, mean ± SD
[8] = 3 μg i.p. in 0.3 ml saline 5 min before irradiation
[9] = 10 μg i.p. in 0.3 ml saline 5 min before irradiation
[10] = 3 μg i.p. 5 min before irradiation
[11] = 10 μg i.p. 5 min before irradiation

CC[C@H](C)[C@H](NC(=O)[C@H](Cc1ccccc1)NC(=O)[C@H](CC(=O)O)NC(=O)[C@H](CCCNC(=N)N)NC(=O)[C@H](C)NC(=O)[C@H](C)NC(=O)[C@H](CC(C)C)NC(=O)[C@H](CC(N)=O)NC(=O)[C@H](CC(=O)O)NC(=O)[C@H](CC(C)C)NC(=O)[C@@H](NC(=O)[C@@H](NC(=O)[C@H](CC(N)=O)NC(=O)[C@H](CCSC)NC(=O)[C@H](CCC(=O)O)NC(=O)[C@H](CC(=O)O)NC(=O)[C@H](CO)NC(=O)[C@H](Cc1ccccc1)NC(=O)[C@H](CO)NC(=O)CNC(=O)[C@H](CC(=O)O)NC(=O)[C@H](C)NC(=O)[C@@H](N)Cc1c[nH]cn1)[C@@H](C)O)[C@@H](C)CC)C(=O)N[C@@H](CC(N)=O)C(=O)N[C@@H](Cc1c[nH]c2ccccc12)C(=O)N[C@@H](CC(C)C)C(=O)N[C@H](C(=O)N[C@@H](CCC(N)=O)C(=O)N[C@H](C(=O)N[C@@H](CCCCN)C(=O)N[C@H](C(=O)N[C@H](C(=O)N[C@@H](CC(=O)O)C(N)=O)[C@@H](C)O)[C@@H](C)CC)[C@@H](C)O)[C@@H](C)CC [GLP-2, hGLP-2(1–33) amide, reference compound]
Crypt height [1, 4]: 113.8 ± 10.9 μm
Height of villi [1, 4]: 229.7 ± 15.9 μm
Number of villi [1, 4]: 32.1 ± 4.1
Abdominal distention [1, 5]: +
Architectural disarray (histologic) [1, 5]: +
Diarrhea [1, 5]: +
Edema (gross) [1, 5]: +
Intestinal dilatation (gross) [1, 5]: +
Mucosal ulceration (gross) [1, 5]: +
Shortening of villi (histologic) [1, 5]: +
Protection against radiation-induced intestinal injury (villi integrity, histology) [1]: did not protect mice against radiation-induced intestinal injury
Protective effect on intestinal antioxidant enzymes and inflammatory factors ([2]; 30 μg i.p. 5 min before irradiation, result in words): no significant protective effect
Intestinal GSH-Px activity [2, 6]: 246.1 ± 37.8 U/mg prot
Intestinal SOD activity [2, 6]: 35.27 ± 4.66 U/mg prot
Intestinal content of GSH [2, 6]: 18.22 ± 3.44 mg/g prot
Intestinal content of MDA [2, 6]: 5.51 ± 0.47 nmol/mg prot
Intestinal content of TNF-α (TNF-α; [6]): 9.78 ± 1.06 pg/mg prot
plasma half-life [3]: 7 min

Mono-PEG-hGLP-2: human GLP-2 peptide conjugated to one 5 kDa mPEG chain by reaction with mPEG5k-SPA
Crypt height [1, 7]: 121.6 ± 6.3 μm
Height of villi [1, 7]: 268.1 ± 11.6 μm
Abdominal distention [1, 8]: +
Architectural disarray (histologic) [1, 8]: +
Diarrhea [1, 8]: –
Edema (gross) [1, 8]: +
Intestinal dilatation (gross) [1, 8]: +
Mucosal ulceration (gross) [1, 8]: +
Shortening of villi (histologic) [1, 8]: +
Height of villi ([1]; 10 μg i.p. 5 min before irradiation, jejunum 48 h after, five microscopic fields per animal, ×100, mean ± SD): 437.1 ± 19.4 μm
Abdominal distention [1, 9]: –
Architectural disarray (histologic) [1, 9]: –
Diarrhea [1, 9]: –
Edema (gross) [1, 9]: +
Intestinal dilatation (gross) [1, 9]: –
Mucosal ulceration (gross) [1, 9]: –
Shortening of villi (histologic) [1, 9]: +
Crypt height [1, 4]: 188.5 ± 8.3 μm
Height of villi [1, 4]: 507.9 ± 21.1 μm
Abdominal distention [1, 5]: –
Architectural disarray (histologic) [1, 5]: –
Diarrhea [1, 5]: –
Edema (gross) [1, 5]: –
Intestinal dilatation (gross) [1, 5]: –
Mucosal ulceration (gross) [1, 5]: –
Shortening of villi (histologic) [1, 5]: –
Protection against radiation-induced intestinal injury (villi integrity, histology) [1]: markedly protected the integrity of the villi and preserved the villous height
Intestinal GSH-Px activity [2, 10]: 331.2 ± 22.1 U/mg prot
Intestinal SOD activity [2, 10]: 40.47 ± 5.41 U/mg prot
Intestinal content of GSH [2, 10]: 20.22 ± 4.87 mg/g prot
Intestinal content of MDA [2, 10]: 5.27 ± 0.44 nmol/mg prot
Intestinal GSH-Px activity [2, 11]: 367.5 ± 42.3 U/mg prot
Intestinal SOD activity [2, 11]: 47.45 ± 8.24 U/mg prot
Intestinal content of GSH [2, 11]: 24.70 ± 10.22 mg/g prot
Intestinal content of MDA [2, 11]: 4.48 ± 0.37 nmol/mg prot
Intestinal GSH-Px activity [2, 6]: 412.7 ± 65.7 U/mg prot
Intestinal SOD activity [2, 6]: 56.11 ± 6.01 U/mg prot
Intestinal content of GSH [2, 6]: 24.01 ± 4.17 mg/g prot
Intestinal content of MDA [2, 6]: 4.01 ± 0.22 nmol/mg prot
Intestinal content of TNF-α (TNF-α; [10]): 7.68 ± 0.77 pg/mg prot
Intestinal content of TNF-α (TNF-α; [11]): 6.12 ± 1.01 pg/mg prot
Intestinal content of TNF-α (TNF-α; [6]): 4.78 ± 0.67 pg/mg prot
NF-κB staining in intestine versus X-ray-alone-treated rats (NF-κB; 3, 10, 30 μg i.p. 5 min before irradiation, immunohistological staining): decreased NF-κB staining in a dose-dependent manner
NF-κB expression in intestine versus model (NF-κB; moderate to high doses (10, 30 μg i.p.) before irradiation, P < 0.01): significantly inhibited NF-κB expression
